The record followed here is ChEMBL document CHEMBL5528028, “Discovery of benzopyridone cyanoacetates as new type of potential broad-spectrum antibacterial candidates” (Eur J Med Chem, 2024).

Holding throughout (assay type): functional
Assay [1] relates to Escherichia coli. Briefly: Antibacterial activity against Escherichia coli assessed growth inhibition by micro broth dilution method.
For assay [2], the system named is Staphylococcus aureus. Briefly: Antibacterial activity against Staphylococcus aureus ATCC 25923 assessed growth inhibition by micro broth dilution method.
For another assay, the system named is Enterococcus faecalis. Briefly: Antibacterial activity against Enterococcus faecalis assessed growth inhibition by micro broth dilution method.
The next assay concerns Klebsiella pneumoniae. Briefly: Antibacterial activity against Klebsiella pneumonia assessed growth inhibition by micro broth dilution method.
For assay [3], the system named is Staphylococcus aureus. Description: Antibacterial activity against Staphylococcus aureus assessed growth inhibition by micro broth dilution method.
The subject of assay [4] is Escherichia coli. Briefly: Antibacterial activity against Escherichia coli ATCC 25922 assessed growth inhibition by micro broth dilution method.
For assay [5], the system named is Pseudomonas aeruginosa. Description: Antibacterial activity against Pseudomonas aeruginosa ATCC 27853 assessed growth inhibition by micro broth dilution method.
Another assay deals with Acinetobacter baumannii. Description: Antibacterial activity against Acinetobacter baumannii assessed growth inhibition by micro broth dilution method.
The test system of assay [6] is Pseudomonas aeruginosa. Briefly: Antibacterial activity against Pseudomonas aeruginosa assessed growth inhibition by micro broth dilution method.
In assay [7] the test system is Staphylococcus aureus. Briefly: Antibacterial activity against methicillin-resistant Staphylococcus aureus assessed growth inhibition by micro broth dilution method.
Assay [8] concerns Staphylococcus aureus. Description: Antibacterial activity against Staphylococcus aureus ATCC 29213 assessed growth inhibition by micro broth dilution method.

Values after ≈ are worked out from the molar mass of the structure shown.

Turning to `CCCCCCCCn1cc(C(=O)OCC)c(=O)c2cc(F)c(F)cc21`, the MIC with Escherichia coli [1] was determined as 4 µg/mL (≈ 10.9 µM); with Staphylococcus aureus [2], 128 µg/mL (≈ 350 µM); in the assay on Enterococcus faecalis it was 64 µg/mL (≈ 175 µM); against Klebsiella pneumoniae it was 64 µg/mL (≈ 175 µM); against Staphylococcus aureus [3], 4 µg/mL (≈ 10.9 µM); with Escherichia coli [4], 64 µg/mL (≈ 175 µM). In addition, the MIC against Pseudomonas aeruginosa [5] came out at 256 µg/mL (≈ 701 µM); in the assay on Acinetobacter baumannii, 64 µg/mL (≈ 175 µM); with Pseudomonas aeruginosa [6], 64 µg/mL (≈ 175 µM); in the assay on Staphylococcus aureus [7], 256 µg/mL (≈ 701 µM); against Staphylococcus aureus [8], 16 µg/mL (≈ 43.8 µM).

Consider `C=CCn1cc(C(=O)OCC)c(=O)c2cc(F)c([C-](C#N)C(=O)OCC)cc21.[Na+]` (stereo not given), for which the MIC against Escherichia coli [1] was 32 µg/mL; against Staphylococcus aureus [2] it was 2 µg/mL; against Enterococcus faecalis, 64 µg/mL; against Klebsiella pneumoniae, 32 µg/mL; against Staphylococcus aureus [3], 128 µg/mL; against Escherichia coli [4], 16 µg/mL. The MIC turned out to be 16 µg/mL in the assay on Pseudomonas aeruginosa [5]; 16 µg/mL in the assay on Acinetobacter baumannii; 16 µg/mL in the assay on Pseudomonas aeruginosa [6]; 128 µg/mL against Staphylococcus aureus [7]; 32 µg/mL in the assay with Staphylococcus aureus [8].

Take `CCOC(=O)c1cn(CC)c2cc(F)c(F)cc2c1=O`: the minimal inhibitory concentration (MIC) against Escherichia coli [1] came to 16 µg/mL (≈ 56.9 µM); in the assay on Staphylococcus aureus [2] it was 256 µg/mL (≈ 910 µM); in the assay with Enterococcus faecalis it was 128 µg/mL (≈ 455 µM); against Klebsiella pneumoniae, 64 µg/mL (≈ 228 µM); against Staphylococcus aureus [3], 32 µg/mL (≈ 114 µM); in the assay on Escherichia coli [4], 64 µg/mL (≈ 228 µM). Besides, the MIC came to 256 µg/mL (≈ 910 µM) in the assay on Pseudomonas aeruginosa [5]; 256 µg/mL (≈ 910 µM) against Acinetobacter baumannii; 64 µg/mL (≈ 228 µM) against Pseudomonas aeruginosa [6]; 256 µg/mL (≈ 910 µM) in the assay with Staphylococcus aureus [7]; 128 µg/mL (≈ 455 µM) against Staphylococcus aureus [8].

As for `CCOC(=O)c1cn(CC)c2c(F)c([C-](C#N)C(=O)OCC)c(F)cc2c1=O.[Na+]` (stereo not given), the MIC against Escherichia coli [1] stood at 64 µg/mL; in the assay with Staphylococcus aureus [2] it was 16 µg/mL; in the assay with Enterococcus faecalis it was 32 µg/mL; in the assay on Klebsiella pneumoniae, 16 µg/mL; in the assay on Staphylococcus aureus [3] it was 16 µg/mL; against Escherichia coli [4], 1 µg/mL. Besides, the MIC in the assay on Pseudomonas aeruginosa [5] was 16 µg/mL; in the assay on Acinetobacter baumannii, 32 µg/mL; against Pseudomonas aeruginosa [6], 64 µg/mL; in the assay on Staphylococcus aureus [7], 32 µg/mL; against Staphylococcus aureus [8], 16 µg/mL.

On to `CCOC(=O)C(C#N)c1cc2c(cc1F)c(=O)c(C(=O)O)cn2Cc1ccc(F)cc1F` (stereo not given), for which the MIC was determined as 16 µg/mL (≈ 36 µM) with Escherichia coli [1]; 1 µg/mL (≈ 2.25 µM) in the assay on Staphylococcus aureus [2]; 8 µg/mL (≈ 18 µM) in the assay with Enterococcus faecalis; 0.5 µg/mL (≈ 1.13 µM) in the assay with Klebsiella pneumoniae; 4 µg/mL (≈ 9 µM) against Staphylococcus aureus [3]; 0.5 µg/mL (≈ 1.13 µM) in the assay with Escherichia coli [4]. Besides, the MIC against Pseudomonas aeruginosa [5] came out at 2 µg/mL (≈ 4.5 µM); with Acinetobacter baumannii it was 2 µg/mL (≈ 4.5 µM); in the assay on Pseudomonas aeruginosa [6] it was 16 µg/mL (≈ 36 µM); in the assay with Staphylococcus aureus [7], 8 µg/mL (≈ 18 µM); against Staphylococcus aureus [8], 4 µg/mL (≈ 9 µM).

In the case of `CCOC(=O)c1cn(Cc2ccc(Cl)cc2Cl)c2cc(F)c(F)cc2c1=O`, the minimum inhibitory concentration (MIC) in the assay with Escherichia coli [1] was determined as 16 µg/mL (≈ 38.8 µM); in the assay on Staphylococcus aureus [2], 256 µg/mL (≈ 621 µM); against Enterococcus faecalis it was 256 µg/mL (≈ 621 µM); in the assay on Klebsiella pneumoniae, 0.5 µg/mL (≈ 1.21 µM); in the assay on Staphylococcus aureus [3], 128 µg/mL (≈ 311 µM); against Escherichia coli [4], 32 µg/mL (≈ 77.6 µM). Moreover, the MIC against Pseudomonas aeruginosa [5] amounted to 256 µg/mL (≈ 621 µM); in the assay with Acinetobacter baumannii, 256 µg/mL (≈ 621 µM); with Pseudomonas aeruginosa [6], 128 µg/mL (≈ 311 µM); with Staphylococcus aureus [7], 256 µg/mL (≈ 621 µM); in the assay with Staphylococcus aureus [8], 256 µg/mL (≈ 621 µM).

Turning to `CCOC(=O)c1cn(Cc2cccc(Cl)c2)c2cc([C-](C#N)C(=O)OCC)c(F)cc2c1=O.[Na+]` (stereo not given), the MIC against Escherichia coli [1] is 0.5 µg/mL; against Staphylococcus aureus [2], 1 µg/mL; against Enterococcus faecalis it was 1 µg/mL; against Klebsiella pneumoniae, 4 µg/mL; with Staphylococcus aureus [3], 128 µg/mL; against Escherichia coli [4], 2 µg/mL. The minimum inhibitory concentration (MIC) worked out at 2 µg/mL in the assay with Pseudomonas aeruginosa [5]; 64 µg/mL in the assay with Acinetobacter baumannii; 16 µg/mL in the assay with Pseudomonas aeruginosa [6]; 64 µg/mL against Staphylococcus aureus [7]; 2 µg/mL in the assay on Staphylococcus aureus [8].

With `C#CCn1cc(C(=O)OCC)c(=O)c2cc(F)c([C-](C#N)C(=O)OCC)cc21.[Na+]` (stereo not given), the MIC turned out to be 16 µg/mL with Escherichia coli [1]; 2 µg/mL in the assay with Staphylococcus aureus [2]; 32 µg/mL in the assay with Enterococcus faecalis; 16 µg/mL in the assay on Klebsiella pneumoniae; 64 µg/mL in the assay with Staphylococcus aureus [3]; 8 µg/mL in the assay on Escherichia coli [4]. For the same compound, the MIC in the assay on Pseudomonas aeruginosa [5] came to 8 µg/mL; with Acinetobacter baumannii, 16 µg/mL; against Pseudomonas aeruginosa [6] it was 32 µg/mL; in the assay with Staphylococcus aureus [7] it was 64 µg/mL; in the assay on Staphylococcus aureus [8], 16 µg/mL.

Turning to `CCn1cc(C(=O)O)c(=O)c2cc(F)c(N3CCNCC3)cc21` [NORFLOXACIN], the MIC was 4 µg/mL (≈ 12.5 µM) in the assay with Escherichia coli [1]; 8 µg/mL (≈ 25.1 µM) against Staphylococcus aureus [2]; 8 µg/mL (≈ 25.1 µM) against Enterococcus faecalis; 8 µg/mL (≈ 25.1 µM) in the assay with Klebsiella pneumoniae; 8 µg/mL (≈ 25.1 µM) against Staphylococcus aureus [3]; 4 µg/mL (≈ 12.5 µM) in the assay on Escherichia coli [4]. Also, the MIC with Pseudomonas aeruginosa [5] is 8 µg/mL (≈ 25.1 µM); against Acinetobacter baumannii it was 2 µg/mL (≈ 6.26 µM); with Pseudomonas aeruginosa [6] it was 8 µg/mL (≈ 25.1 µM); with Staphylococcus aureus [7], 8 µg/mL (≈ 25.1 µM); against Staphylococcus aureus [8] it was 4 µg/mL (≈ 12.5 µM).

As to `CCOC(=O)c1cn(Cc2ccccc2Cl)c2cc(F)c(F)cc2c1=O`, the MIC is 2 µg/mL (≈ 5.29 µM) in the assay on Escherichia coli [1]; 256 µg/mL (≈ 678 µM) against Staphylococcus aureus [2]; 4 µg/mL (≈ 10.6 µM) in the assay on Enterococcus faecalis; 32 µg/mL (≈ 84.7 µM) with Klebsiella pneumoniae; 128 µg/mL (≈ 339 µM) in the assay on Staphylococcus aureus [3]; 128 µg/mL (≈ 339 µM) against Escherichia coli [4]. The MIC with Pseudomonas aeruginosa [5] is 256 µg/mL (≈ 678 µM); against Acinetobacter baumannii, 32 µg/mL (≈ 84.7 µM); against Pseudomonas aeruginosa [6], 256 µg/mL (≈ 678 µM); in the assay with Staphylococcus aureus [7] it was 256 µg/mL (≈ 678 µM); in the assay on Staphylococcus aureus [8] it was 256 µg/mL (≈ 678 µM).
